In PMC7915026, “Sulfaguanidine Hybrid with Some New Pyridine-2-One Derivatives: Design, Synthesis, and Antimicrobial Activity against Multidrug-Resistant Bacteria as Dual DNA Gyrase and DHFR Inhibitors” (Antibiotics, 2021):
In brackets after ≈: the same amount, converted by molar mass. Read-outs that look alike come from different tables or passages of the source.

Key:
S. aureus DNA gyrase = S. aureus DNA gyrase (Staphylococcus aureus, UniProt P0A0K8+P20831); assay: In vitro DNA gyrase supercoiling enzymatic assay; format: biochemical
Sequence of S. aureus DNA gyrase (P20831 whole entry): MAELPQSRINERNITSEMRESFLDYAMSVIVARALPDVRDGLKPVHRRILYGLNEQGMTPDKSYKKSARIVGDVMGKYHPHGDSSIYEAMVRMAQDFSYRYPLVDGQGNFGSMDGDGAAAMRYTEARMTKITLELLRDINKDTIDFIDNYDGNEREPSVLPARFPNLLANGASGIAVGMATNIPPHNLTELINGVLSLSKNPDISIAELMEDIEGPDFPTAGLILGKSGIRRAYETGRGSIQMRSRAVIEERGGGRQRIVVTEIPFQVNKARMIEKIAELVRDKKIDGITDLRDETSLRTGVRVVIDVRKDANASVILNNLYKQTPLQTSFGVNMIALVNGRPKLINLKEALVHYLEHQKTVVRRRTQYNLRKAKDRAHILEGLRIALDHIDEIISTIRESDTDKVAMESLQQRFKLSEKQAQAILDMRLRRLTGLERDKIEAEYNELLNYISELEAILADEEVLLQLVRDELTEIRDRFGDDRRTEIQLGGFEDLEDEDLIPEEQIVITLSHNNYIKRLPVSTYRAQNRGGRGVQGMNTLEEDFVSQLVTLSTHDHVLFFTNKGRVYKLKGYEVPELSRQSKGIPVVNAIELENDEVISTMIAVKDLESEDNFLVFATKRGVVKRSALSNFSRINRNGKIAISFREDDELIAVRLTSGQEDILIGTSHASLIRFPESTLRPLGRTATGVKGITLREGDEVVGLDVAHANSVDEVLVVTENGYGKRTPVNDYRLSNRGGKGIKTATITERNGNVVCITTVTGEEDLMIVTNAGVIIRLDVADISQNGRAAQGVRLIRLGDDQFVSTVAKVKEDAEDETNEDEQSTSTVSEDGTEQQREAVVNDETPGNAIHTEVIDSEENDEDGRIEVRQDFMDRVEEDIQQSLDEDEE
Sequence of S. aureus DNA gyrase (P0A0K8 whole entry): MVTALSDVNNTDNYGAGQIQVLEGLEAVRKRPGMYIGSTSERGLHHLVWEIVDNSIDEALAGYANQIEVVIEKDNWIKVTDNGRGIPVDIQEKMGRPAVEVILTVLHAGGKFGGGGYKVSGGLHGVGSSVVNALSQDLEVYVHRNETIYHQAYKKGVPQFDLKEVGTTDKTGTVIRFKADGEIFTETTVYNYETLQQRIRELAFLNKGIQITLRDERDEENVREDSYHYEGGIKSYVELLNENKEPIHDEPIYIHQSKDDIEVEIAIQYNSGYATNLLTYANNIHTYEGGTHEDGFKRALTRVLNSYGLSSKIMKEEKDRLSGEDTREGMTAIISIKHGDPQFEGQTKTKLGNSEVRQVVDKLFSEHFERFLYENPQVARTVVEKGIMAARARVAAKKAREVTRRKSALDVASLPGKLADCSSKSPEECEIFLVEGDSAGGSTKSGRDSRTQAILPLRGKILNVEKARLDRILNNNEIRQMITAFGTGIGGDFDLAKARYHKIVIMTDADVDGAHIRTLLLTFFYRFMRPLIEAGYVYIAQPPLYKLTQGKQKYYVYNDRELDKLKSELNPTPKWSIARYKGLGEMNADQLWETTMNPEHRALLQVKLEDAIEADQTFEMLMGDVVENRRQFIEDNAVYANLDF

[1] = test system: P. aeruginosa ATCC BAA-2111; assay: Inhibition zone against multidrug-resistant bacteria; format: cell-based; details: MDRB P. aeruginosa ATCC BAA-2111
Description: (§1) Norfloxacin was used as a positive control for the multidrug resistance study.
(§2) The antimicrobial activity performed at the bacteriology laboratory, Botany and Microbiology Department, Faculty of Science, Al-Azhar University, Cairo, Egypt. The inhibition zone (IZ) of the tested derivatives expressed as the diameter (mm) according to the agar plate diffusion method.

E. coli ATCC BAA-196 [2] = assay: as above; format: cell-based; details: MDRB E. coli ATCC BAA-196
Description: as §1, §2

S. aureus ATCC 43300 [3] = assay: as above; format: cell-based; details: MDRB S. aureus ATCC 43300
Description: as §1, §2

S. aureus ATCC 33591 [4] = assay: as above; format: cell-based; details: MDRB S. aureus ATCC 33591
Description: as §1, §2

E. faecalis ATCC 29212 [5] = assay: MIC and MBC determination; format: cell-based; details: Enterococcus faecalis, ATCC29212, E. faecalis
E. coli ATCC 25922 [6] = assay: MIC and MBC determination; format: cell-based; details: Escherichia coli, ATCC25922, E. coli
[7] = test system: P. aeruginosa ATCC BAA-2111; assay: MIC and MBC against multidrug-resistant strains; format: cell-based; details: P. aeruginosa ATCC BAA-2111
Description: as §1
(§3) The experiment was repeating for three-times.

E. coli ATCC BAA-196 [8] = assay: MIC and MBC against multidrug-resistant strains; format: cell-based; details: E. coli ATCC BAA-196
Description: as §1, §3

S. aureus ATCC 43300 [9] = assay: MIC and MBC against multidrug-resistant strains; format: cell-based; details: Staphylococcus aureus, ATCC43300, S. aureus ATCC 43300; for MBC: read-out: MBC; for MIC: read-out: MIC
Description: as §1, §3

S. aureus ATCC 33591 [10] = assay: MIC and MBC against multidrug-resistant strains; format: cell-based; details: Staphylococcus aureus, ATCC33591, S. aureus ATCC 33591; for MBC: read-out: MBC; for MIC: read-out: MIC
Description: as §1, §3

P. aeruginosa ATCC 27853 [11] = assay: MIC and MBC determination; format: cell-based; details: Pseudomonas aeruginosa, ATCC27853, P. aeruginosa
C. albicans (ATCC 10231) [12] = assay: Inhibition zone, paper disk/agar diffusion; format: cell-based; details: Na = no activity
Description: as §2

E. coli ATCC 25922 [13] = assay: Inhibition zone, paper disk/agar diffusion; format: cell-based; details: E. coli; Na = no activity
Description: as §2

B. subtilis ATCC 6633 [14] = assay: Inhibition zone, paper disk/agar diffusion; format: cell-based; details: B. subtilis; Na = no activity
Description: as §2

S. typhi ATCC 6539 = assay: Inhibition zone, paper disk/agar diffusion; format: cell-based; details: S. typhi; Na = no activity
Description: as §2

[15] = test system: F. oxysporum (RCMB 008002); assay: Inhibition zone, paper disk/agar diffusion; format: cell-based; details: Na = no activity
Description: as §2

S. aureus ATCC 29213 [16] = assay: Inhibition zone, paper disk/agar diffusion; format: cell-based; details: S. aureus; Na = no activity
Description: as §2

E. faecalis ATCC 29212 [17] = assay: Inhibition zone, paper disk/agar diffusion; format: cell-based; details: E. faecalis; Na = no activity
Description: as §2

P. aeruginosa ATCC 27853 [18] = assay: Inhibition zone, paper disk/agar diffusion; format: cell-based; details: P. aeruginosa; Na = no activity
Description: as §2

[19] = test system: F. oxysporum (RCMB 008002); assay: MIC and MFC determination; format: cell-based
spleen and thymus = assay: In vivo immunomodulation: immune organ weight and indexes; set-up: Spleen index: unit not given here; details: mice
Description: Both the spleen and thymus have important antibacterial and fungal immune organ responses, and any change in weight, and indexes can reflect the level of immune regulation. Additionally, the relative spleen and thymus indexes are important indices for nonspecific immunity and potential immunomodulatory compounds that increase the spleen and thymus weight. This increase is due to immune cells’ stimulation in the spleen and thymus. […]

[20] = test system: Salmonella typhi (S. typhi ATCC 6539); assay: microbe, parasite or virus in culture; format: cell-based; details: Salmonella enterica, Salmonella typhi
[21] = test system: CD4+ and CD8+ T lymphocytes; assay: In vivo T lymphocyte subsets from peripheral blood, flow cytometry; details: mice
Description: Activation of immune cells as CD4^+ and CD8^+ T cells is one possible mechanism of a drug’s immune stimulus activity. An increase in these cells is thought to be a good indicator of an active immune response to infections. So, our work extended to study the effect of the most promising derivatives (2d, 8, and 11) on T lymphocyte subsets (CD4^+ and CD8^+) from peripheral blood, and determined the relative level in model mice that analyzed by flow cytometry after the period of treating.
In vitro intracellular killing activities for the most promising six derivatives 2a, 2b, 2d, 3a, 8, and 11 were performed according to reported methods.

C. albicans (ATCC 10231) [22] = assay: MIC and MFC determination; format: cell-based
S. aureus ATCC 29213 [23] = assay: MIC and MBC determination; format: cell-based; details: Staphylococcus aureus, ATCC29213, S. aureus
B. subtilis ATCC 6633 [24] = assay: MIC and MBC determination; format: cell-based; details: Bacillus subtilis, ATCC6633, B. subtilis
MDRB strains = assay: MIC and MBC, ranges over the MDRB panel; format: cell-based; details: four MDRB strains
Description: as §1, §3

[25] = Pseudomonas aeruginosa, ATCCBAA2111, read-out: MBC
[26] = Pseudomonas aeruginosa, ATCCBAA2111, read-out: MIC
[27] = Escherichia coli, ATCCBAA196, read-out: MBC
[28] = Escherichia coli, ATCCBAA196, read-out: MIC

Compound: N=C(N)NS(=O)(=O)c1ccc(NC(=O)c2cc3ccccc3oc2=N)cc1 [Compound 11, N-(4-(N-Carbamimidoylsulfamoyl)phenyl)-2-imino-2H-chromene-3-carboxamide]
- IC50 (S. aureus DNA gyrase): 39.4 ± 1.15 µM
- Mean Diameter of Inhibition Zone [1]: 23 ± 0.25 mm
- Mean Diameter of Inhibition Zone (E. coli ATCC BAA-196 [2]): 19 ± 0.88 mm
- Mean Diameter of Inhibition Zone (S. aureus ATCC 43300 [3]): 17 ± 0.3 mm
- Mean Diameter of Inhibition Zone (S. aureus ATCC 33591 [4]): 22 ± 0.65 mm
- MBC (E. faecalis ATCC 29212 [5]; read-out: MBC): 81.1 ± 0.98 µM (≈ 31.2 µg/mL)
- MIC (E. faecalis ATCC 29212 [5]; read-out: MIC): 40.5 ± 0.74 µM (≈ 15.6 µg/mL)
- MBC (E. coli ATCC 25922 [6]; read-out: MBC): 40.5 ± 0.75 µM (≈ 15.6 µg/mL)
- MIC (E. coli ATCC 25922 [6]; read-out: MIC): 20.3 ± 0.36 µM (≈ 7.81 µg/mL)
- MBC [7, 25]: 81.1 ± 0.86 µM (≈ 31.2 µg/mL)
- MIC [7, 26]: 40.5 ± 0.74 µM (≈ 15.6 µg/mL)
- MBC (E. coli ATCC BAA-196 [8]; [27]): 48 ± 0.81 µM (≈ 18.5 µg/mL)
- MIC (E. coli ATCC BAA-196 [8]; [28]): 24 ± 0.49 µM (≈ 9.25 µg/mL)
- MBC (S. aureus ATCC 43300 [9]): 81.1 ± 0.85 µM (≈ 31.2 µg/mL)
- MIC (S. aureus ATCC 43300 [9]): 40.52 ± 0.36 µM (≈ 15.6 µg/mL)
- MBC (S. aureus ATCC 33591 [10]): 19.2 ± 0.65 µM (≈ 7.41 µg/mL)
- MIC (S. aureus ATCC 33591 [10]): 10.1 ± 0.29 µM (≈ 3.9 µg/mL)
- MBC (P. aeruginosa ATCC 27853 [11]; read-out: MBC): 144 ± 1.47 µM (≈ 55.5 µg/mL)
- MIC (P. aeruginosa ATCC 27853 [11]; read-out: MIC): 72 ± 0.96 µM (≈ 27.8 µg/mL)
- Mean Diameter of the Inhibition Zone (C. albicans (ATCC 10231) [12]): 22 ± 0.21 mm
- Mean Diameter of the Inhibition Zone (E. coli ATCC 25922 [13]): 25 ± 0.43 mm
- Mean Diameter of the Inhibition Zone (B. subtilis ATCC 6633 [14]): 28 ± 0.11 mm
- Mean Diameter of the Inhibition Zone (S. typhi ATCC 6539): 18 ± 0.36 mm
- Mean Diameter of the Inhibition Zone [15]: 18 ± 0.45 mm
- Mean Diameter of the Inhibition Zone (S. aureus ATCC 29213 [16]): 24 ± 0.29 mm
- Mean Diameter of the Inhibition Zone (E. faecalis ATCC 29212 [17]): 29± 0.54 mm
- Mean Diameter of the Inhibition Zone (P. aeruginosa ATCC 27853 [18]): 24 ± 0.13 mm
- MFC/MIC [19]: <2
- MFC ([19]; Fusarium oxysporum, RCMB008002, read-out: MFC): 145.9 ± 1.25 µM (≈ 56.2 µg/mL)
- MIC ([19]; Fusarium oxysporum, RCMB008002, read-out: MIC): 81.08 ± 0.54 µM (≈ 31.2 µg/mL)
- Spleen index (spleen and thymus): 0.008 ± 0.00
- Spleen weight (spleen and thymus): 190 ± 0.074 mg
- Thymus index (spleen and thymus): 0.455 ± 0.07 mg/g
- Thymus weight (spleen and thymus): 13.67 ± 0.53 mg
- MBC ([20]; read-out: MBC): 94.7 ± 0.79 µM (≈ 36.5 µg/mL)
- MIC ([20]; read-out: MIC): 48 ± 0.85 µM (≈ 18.5 µg/mL)
- T cells CD4+ [21]: 75.20 ± 0.97%
- T cells CD8+ [21]: 24.05 ± 0.32%
- MFC/MIC (C. albicans (ATCC 10231) [22]): <2
- MFC (C. albicans (ATCC 10231) [22]; Candida albicans, ATCC10231, read-out: MFC): 45.6 ± 0.47 µM (≈ 17.6 µg/mL)
- MIC (C. albicans (ATCC 10231) [22]; Candida albicans, ATCC10231, read-out: MIC): 24 ± 0.41 µM (≈ 9.25 µg/mL)
- MBC (S. aureus ATCC 29213 [23]; read-out: MBC): 40.5 ± 1.02 µM (≈ 15.6 µg/mL)
- MIC (S. aureus ATCC 29213 [23]; read-out: MIC): 20.3 ± 0.67 µM (≈ 7.81 µg/mL)
- MBC (B. subtilis ATCC 6633 [24]; read-out: MBC): 17.2 ± 0.54 µM (≈ 6.63 µg/mL)
- MIC (B. subtilis ATCC 6633 [24]; read-out: MIC): 10.1 ± 0.68 µM (≈ 3.9 µg/mL)

Compound: CCn1cc(C(=O)O)c(=O)c2cc(F)c(N3CCNCC3)cc21 [Norfloxacin, reference compound]
- Mean Diameter of Inhibition Zone [1]: 24 ± 0.47 mm
- Mean Diameter of Inhibition Zone (E. coli ATCC BAA-196 [2]): 27 ± 0.98 mm
- Mean Diameter of Inhibition Zone (S. aureus ATCC 43300 [3]): 25 ± 0.5 mm
- Mean Diameter of Inhibition Zone (S. aureus ATCC 33591 [4]): 26 ± 0.5 mm
- MBC ([7]; listed as Nor.): 16.65 ± 0.19 µM (≈ 5.32 µg/mL)
- MIC ([7]; listed as Nor.): 9.80 ± 0.41 µM (≈ 3.13 µg/mL)
- MBC [7, 25]: 16.6 µM (≈ 5.32 µg/mL)
- MIC [7, 26]: 9.8 µM (≈ 3.13 µg/mL)
- MBC (E. coli ATCC BAA-196 [8]; listed as Nor.): 8.32 ± 0.47 µM (≈ 2.66 µg/mL)
- MIC (E. coli ATCC BAA-196 [8]; listed as Nor.): 4.91 ± 0.69 µM (≈ 1.57 µg/mL)
- MBC (E. coli ATCC BAA-196 [8]; [27]): 8.32 µM (≈ 2.66 µg/mL)
- MIC (E. coli ATCC BAA-196 [8]; [28]): 4.91 µM (≈ 1.57 µg/mL)
- MBC (S. aureus ATCC 43300 [9]): 7.82 ± 0.32 µM (≈ 2.5 µg/mL)
- MIC (S. aureus ATCC 43300 [9]): 3.91 ± 0.21 µM (≈ 1.25 µg/mL)
- MBC (S. aureus ATCC 33591 [10]): 4.38 ± 0.49 µM (≈ 1.4 µg/mL)
- MIC (S. aureus ATCC 33591 [10]): 2.44 ± 0.45 µM (≈ 0.779 µg/mL)
- MBC range (MDRB strains): 4.38 to 16.65 µM
- MIC range (MDRB strains): 2.44 to 9.80 µM
